From patent US8217043B2, “Compounds and methods for their use” (Fibrogen, Inc., priority 2008, dated 2012) come the findings set out here.

Each structure is given as a SMILES string.

For one experiment, the target named is T1, HIF-PH2 (EGLN1) (Homo sapiens, UniProt Q9GZT9).
T1 construct: made in house; host or cells: insect Hi5 cells
T1 sequence (Q9GZT9 whole entry, species assumed): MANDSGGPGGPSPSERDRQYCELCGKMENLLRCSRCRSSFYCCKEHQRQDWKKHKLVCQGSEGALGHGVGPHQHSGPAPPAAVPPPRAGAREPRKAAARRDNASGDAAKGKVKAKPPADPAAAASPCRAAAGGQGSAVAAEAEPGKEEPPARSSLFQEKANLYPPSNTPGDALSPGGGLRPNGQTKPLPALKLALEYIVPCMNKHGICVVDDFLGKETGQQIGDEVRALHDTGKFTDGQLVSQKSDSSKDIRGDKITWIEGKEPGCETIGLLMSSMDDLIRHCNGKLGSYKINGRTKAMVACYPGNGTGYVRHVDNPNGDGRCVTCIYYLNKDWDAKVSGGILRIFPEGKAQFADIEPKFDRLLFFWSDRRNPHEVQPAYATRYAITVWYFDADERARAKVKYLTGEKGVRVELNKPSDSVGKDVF
The experiment is described as follows: HIF-PH assay (14CO2 capture, peptide-dependent turnover). It counts as biochemical. The following applies: Concentration 22 μM. The text has this:
Ketoglutaric acid α-[1-^14C]-sodium salt, alpha-ketoglutaric acid sodium salt, and HPLC purified peptide may be obtained from commercial sources, e.g., Perkin-Elmer (Wellesley Mass.), Sigma-Aldrich, and SynPep Corp. (Dublin Calif.), respectively. Peptides for use in the assay may be fragments of HIFα as described above or as disclosed in International Publication WO 2005/118836, incorporated by reference herein. HIF-PH, e.g., HIF-PH2 (EGLN1), can be expressed in, e.g., insect Hi5 cells, and partially purified, e.g., through a SP ion exchange chromatography column. Enzyme activity is determined by capturing ^14CO2 using an assay described by Kivirikko and Myllyla (1982, Methods Enzymol. 82:245-304). Assay reactions contain 50 mM HEPES (pH 7.4), 100 μM α-ketoglutaric acid sodium salt, 0.30 μCi/mL ketoglutaric acid α-[1-^14C]-sodium salt, 40 μM FeSO4, 1 mM ascorbate, 1541.8 units/mL Catalase, with or without 50 μM peptide substrate and various concentrations of compound of the invention. Reactions are initiated by addition of HIF-PH enzyme.
The peptide-dependent percent turnover is calculated by subtracting percent turnover in the absence of peptide from percent turnover in the presence of substrate peptide. Percent inhibition and IC50 are calculated using peptide-dependent percent turnover at given inhibitor concentrations. Calculation of IC50 values for each inhibitor is conducted using GraFit software (Erithacus Software Ltd., Surrey UK).
Representative compounds of the invention were analyzed using the HIF-PH assay described above. Table 1 presents enzyme inhibition data for exemplary compounds against HIF-PH2, a representative HIF prolyl hydroxylase. By inhibiting HIF prolyl hydroxylase, compounds of the invention stabilize HIFα, which then combines with HIFβ to form an active transcription factor that increases expression of various genes involved in numerous beneficial cellular processes.
For `O=C(O)CNC(=O)c1c(O)c2c(Cl)c(Cl)c(Cl)n2n(Cc2ccccc2)c1=O` [Example 2, [(1-Benzyl-5,6,7-trichloro-4-hydroxy-2-oxo-1,2-dihydro-pyrrolo[1,2-b]pyridazine-3-carbonyl)-amino]-acetic acid], the inhibition (as a rule, the change of the read-out against control, counted positive when it falls) at 22 µM was found to be 99%.

The same experiment, now with this note: Concentration 50 μM.
On to `CCCCn1c(=O)c(C(=O)NCC(=O)O)c(O)c2cccn21` [Example 17, [(1-Butyl-4-hydroxy-2-oxo-1,2-dihydro-pyrrolo[1,2-b]pyridazine-3-carbonyl)-amino]-acetic acid], for which the inhibition at 50 µM is 97%.
`O=C(O)CNC(=O)c1c(O)c2cc3ccccc3n2n(Cc2ccc(F)cc2)c1=O` [Example 18, {[4-(4-Fluoro-benzyl)-1-hydroxy-3-oxo-3,4-dihydro-4,4a-diaza-fluorene-2-carbonyl]-amino}-acetic acid] had an inhibition at 50 µM of 96%.
On the same count and under the same terms, the same measure for `C[C@H](NC(=O)c1c(O)c2cc3ccccc3n2n(Cc2ccc(F)cc2)c1=O)C(=O)O` [Example 19, 2-(S)-{[4-(4-Fluoro-benzyl)-1-hydroxy-3-oxo-3,4-dihydro-4,4a-diaza-fluorene-2-carbonyl]-amino}-propionic acid]: 99%; for `CCCCCCn1c(=O)c(C(=O)NCC(=O)O)c(O)c2cccn21` [Example 20, [(1-Hexyl-4-hydroxy-2-oxo-1,2-dihydro-pyrrolo[1,2-b]pyridazine-3-carbonyl)-amino]-acetic acid]: 97%.
`O=C(O)CNC(=O)c1c(O)c2cc3cc(F)ccc3n2n(Cc2ccc(F)cc2)c1=O` [Example 21, {[7-Fluoro-4-(4-fluoro-benzyl)-1-hydroxy-3-oxo-3,4-dihydro-4,4a-diaza-fluorene-2-carbonyl]-amino}-acetic acid] returned an inhibition at 50 µM of 99%.
Same read-out and setting: the result for `O=C(O)CNC(=O)c1c(O)c2cc(Cl)cn2n(Cc2ccc(C(F)(F)F)cc2)c1=O` [Example 22, {[6-Chloro-4-hydroxy-2-oxo-1-(4-trifluoromethyl-benzyl)-1,2-dihydro-pyrrolo[1,2-b]pyridazine-3-carbonyl]-amino}-acetic acid] reads 98%; that for `C[C@H](NC(=O)c1c(O)c2cc(Cl)cn2n(Cc2ccc(C(F)(F)F)cc2)c1=O)C(=O)O` [Example 23, 2-(S)-{[6-Chloro-4-hydroxy-2-oxo-1-(4-trifluoromethyl-benzyl)-1,2-dihydro-pyrrolo[1,2-b]pyridazine-3-carbonyl]-amino}-propionic acid], 98%; that for `C[C@H](NC(=O)c1c(O)c2cccn2n(Cc2ccc(C(F)(F)F)cc2)c1=O)C(=O)O` [Example 24, 2-(S)-{[4-Hydroxy-2-oxo-1-(4-trifluoromethyl-benzyl)-1,2-dihydro-pyrrolo[1,2-b]pyridazine-3-carbonyl]-amino}-propionic acid], 98%.

Still in this experiment, the particulars now being: Concentration 67 μM.
Regarding `O=C(O)CNC(=O)c1c(O)c2cc(Cl)cn2n(Cc2ccc(F)cc2)c1=O` [Example 26, {[6-Chloro-4-hydroxy-2-oxo-1-(4-fluoro-benzyl)-1,2-dihydro-pyrrolo[1,2-b]pyridazine-3-carbonyl]-amino}-acetic acid], the inhibition at 67 µM is 98%.
In turn, `C[C@H](NC(=O)c1c(O)c2cc(Cl)cn2n(Cc2ccc(F)cc2)c1=O)C(=O)O` [Example 27, 2-(S)-{[6-Chloro-1-(4-fluoro-benzyl)-4-hydroxy-2-oxo-1,2-dihydro-pyrrolo[1,2-b]pyridazine-3-carbonyl]-amino}-propionic acid] came in with an inhibition at 67 µM of 95%.
The same measure, in the same setting: the result for `O=C(O)CNC(=O)c1c(O)c2cc(Cl)cn2n(Cc2ccc(Cl)cc2)c1=O` [Example 28, {[6-Chloro-1-(4-chloro-benzyl)-4-hydroxy-2-oxo-1,2-dihydro-pyrrolo[1,2-b]pyridazine-3-carbonyl]-amino}-acetic acid] reads 100%; that for `C[C@H](NC(=O)c1c(O)c2cc(Cl)cn2n(Cc2ccc(Cl)cc2)c1=O)C(=O)O` [Example 29, 2-(S)-{[6-Chloro-1-(4-chloro-benzyl)-4-hydroxy-2-oxo-1,2-dihydro-pyrrolo[1,2-b]pyridazine-3-carbonyl]-amino}-propionic acid], 100%.

The same experiment, now with this note: Concentration 125 μM.
Take `O=C(O)CNC(=O)c1c(O)c2cccn2[nH]c1=O` [Example 4, [(4-Hydroxy-2-oxo-1,2-dihydro-pyrrolo[1,2-b]pyridazine-3-carbonyl)-amino]-acetic acid]: 125 µM produced 84% inhibition.
As for `O=C(O)CNC(=O)c1c(O)c2cccn2n(Cc2ccccc2F)c1=O` [Example 5, {[1-(2-Fluoro-benzyl)-4-hydroxy-2-oxo-1,2-dihydro-pyrrolo[1,2-b]pyridazine-3-carbonyl]-amino}-acetic acid], the inhibition at 125 µM was 96%.
As for `O=C(O)CNC(=O)c1c(O)c2cccn2n(Cc2cccc(C(F)(F)F)c2)c1=O` [Example 13, {[1-(3-Trifluoromethyl-benzyl)-4-hydroxy-2-oxo-1,2-dihydro-pyrrolo[1,2-b]pyridazine-3-carbonyl]-amino}-acetic acid], at 125 µM the inhibition was 97%.
`O=C(O)CNC(=O)c1c(O)c2cccn2n(Cc2cccc(F)c2)c1=O` [Example 14, {[1-(3-Fluoro-benzyl)-4-hydroxy-2-oxo-1,2-dihydro-pyrrolo[1,2-b]pyridazine-3-carbonyl]-amino}-acetic acid] came in with an inhibition at 125 µM of 98%.
The same measure, in the same setting: the same measure for `O=C(O)CNC(=O)c1c(O)c2cccn2n(Cc2c(F)cccc2F)c1=O` [Example 15, {[1-(2,6-Difluoro-benzyl)-4-hydroxy-2-oxo-1,2-dihydro-pyrrolo[1,2-b]pyridazine-3-carbonyl]-amino}-acetic acid]: 94%.
Consider `O=C(O)CNC(=O)c1c(O)c2cccn2n(Cc2ccccc2C(F)(F)F)c1=O` [Example 16, {[1-(2-Trifluoromethyl-benzyl)-4-hydroxy-2-oxo-1,2-dihydro-pyrrolo[1,2-b]pyridazine-3-carbonyl]-amino}-acetic acid], for which the inhibition at 125 µM turned out to be 98%.

Staying with this experiment, now noted: Concentration 200 μM.
`O=C(O)CNC(=O)c1c(O)c2cccn2n(Cc2ccccc2)c1=O` [Example 1, [(1-Benzyl-4-hydroxy-2-oxo-1,2-dihydro-pyrrolo[1,2-b]pyridazine-3-carbonyl)-amino]-acetic acid] yielded an inhibition at 200 µM of 100%.
`O=C(O)CNC(=O)c1c(O)c2cccn2n(Cc2ccc(F)cc2)c1=O` [Example 3, {[1-(4-Fluoro-benzyl)-4-hydroxy-2-oxo-1,2-dihydro-pyrrolo[1,2-b]pyridazine-3-carbonyl]-amino}-acetic acid]: 200 µM produced 100% inhibition.
For the compound `O=C(O)CNC(=O)c1c(O)c2cccn2n(Cc2ccc(F)cc2F)c1=O` [Example 6, {[1-(2,4-Difluoro-benzyl)-4-hydroxy-2-oxo-1,2-dihydro-pyrrolo[1,2-b]pyridazine-3-carbonyl]-amino}-acetic acid], testing at 200 µM gave an inhibition of 100%.
With `O=C(O)CNC(=O)c1c(O)c2cccn2n(Cc2ccccc2Cl)c1=O` [Example 7, {[1-(2-Chloro-benzyl)-4-hydroxy-2-oxo-1,2-dihydro-pyrrolo[1,2-b]pyridazine-3-carbonyl]-amino}-acetic acid], the inhibition at 200 µM was 100%.
The same measure, in the same setting: the result for `O=C(O)CNC(=O)c1c(O)c2cccn2n(Cc2cccc(Cl)c2)c1=O` [Example 8, {[1-(3-Chloro-benzyl)-4-hydroxy-2-oxo-1,2-dihydro-pyrrolo[1,2-b]pyridazine-3-carbonyl]-amino}-acetic acid] reads 100%; that for `O=C(O)CNC(=O)c1c(O)c2cccn2n(Cc2ccc3ccccc3c2)c1=O` [Example 9, [(4-Hydroxy-1-naphthalen-2-ylmethyl-2-oxo-1,2-dihydro-pyrrolo[1,2-b]pyridazine-3-carbonyl)-amino]-acetic acid], 100%.
Compound `O=C(O)CNC(=O)c1c(O)c2cccn2n(Cc2ccc(C(F)(F)F)cc2)c1=O` [Example 10, {[1-(4-Trifluoromethyl-benzyl)-4-hydroxy-2-oxo-1,2-dihydro-pyrrolo[1,2-b]pyridazine-3-carbonyl]-amino}-acetic acid] returned an inhibition at 200 µM of 100%.
`O=C(O)CNC(=O)c1c(O)c2cccn2n(Cc2ccc(Cl)cc2)c1=O` [Example 11, {[1-(4-Chloro-benzyl)-4-hydroxy-2-oxo-1,2-dihydro-pyrrolo[1,2-b]pyridazine-3-carbonyl]-amino}-acetic acid] registered an inhibition at 200 µM of 100%.
As for `COc1ccc(Cn2c(=O)c(C(=O)NCC(=O)O)c(O)c3cccn32)cc1` [Example 12, {[1-(4-Methoxy-benzyl)-4-hydroxy-2-oxo-1,2-dihydro-pyrrolo[1,2-b]pyridazine-3-carbonyl]-amino}-acetic acid], the inhibition at 200 µM worked out at 100%.
With `CC[C@H](NC(=O)c1c(O)c2cccn2n(Cc2ccc(C(F)(F)F)cc2)c1=O)C(=O)O` [Example 25, 2-(S)-{[4-Hydroxy-2-oxo-1-(4-trifluoromethyl-benzyl)-1,2-dihydro-pyrrolo[1,2-b]pyridazine-3-carbonyl]-amino}-butyric acid], the inhibition at 200 µM came out at 98%.
